Data as given in ChEMBL document CHEMBL1201862, “PubChem BioAssay data set” (2004).
Activity calls are given as the source filed them.

Key:
[1] = Luminescence Cell-Based Dose Confirmation HTS to Identify Inhibitors of Polyadenylation.; format: functional
[2] = biological target: 5-hydroxytryptamine receptor 1A (Homo sapiens, UniProt P08908); format: functional
[3] = biological target: Aryl hydrocarbon receptor (Homo sapiens, UniProt P35869); experiment: Luminescence-based cell-based high throughput dose response assay for activators of the Aryl Hydrocarbon Receptor (AHR). [Related pubchem assays: 2796 (Primary screen (AHR activators in singlicate)), 2845 (Confirmation screen (AHR activators in triplicate)), 434939 (Counterscreen (PXR activators in triplicate)), 2804 (Summary (AHR activators))]; format: ADME
[4] = NIH-3T3 fibroblast cytotoxicity, dose response, cytotoxicity control, cell-based, fluorescence, Alamar Blue, secondary assay (AID 2327); format: functional;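 note: NIH-3T3 mouse fibroblasts cultured with fluconazole at 8 µg/mL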
[5] = luciferase reporter signal reduction – luminescence, H4-C neuroglioblastoma cells, dose response (AID 2458); format: functional, cell-based;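 note: H4 neuroglioblastoma cells stably carrying a luciferase reporter gene fusion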
cells = format: functional, cell-based
[6] = Luminescence Cell-Based Dose Response HTS to Identify Inhibitors of 5'UTR Stem-Loop Driven Prion Protein mRNA Translation in H4 Neuroglioblastoma Cells. [Related pubchem assays: 1827 (Project Summary), 1813 (Primary HTS)]; format: functional
Vero [7] = experiment: mammalian cell viability reduction – secondary assay, cytotoxicity control for West Nile virus antiviral project, dose response (AID 1650); format: functional; settings: Chlorocebus sabaeus
[8] = alpha-synuclein stem-loop luciferase translation blockers – H4 neuroglioma cells, luminescence, confirmation (AID 1988); format: functional, cell-based
[9] = fluconazole-exposed Candida albicans growth modulators – fluorescence, retest, confirmation (AID 2467); format: functional, cell-based
[10] = microbe, parasite or virus in culture; format: functional; settings: Mycobacterium tuberculosis
[11] = alpha-synuclein stem-loop translation blockers – luminescence, H4 neuroglioblastoma cells, dose confirmation, confirmation (AID 2454); format: functional, cell-based;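 note: H4 neuroglioblastoma cells carrying an alpha-synuclein 5'UTR luciferase reporter; potency for inhibition of the luciferase signal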
Jurkat = experiment: blockers of NF-kB activation in T cells – Jurkat, luciferase reporter, luminescence, B- and T-cell, dose response (AID 489004); format: functional, cell-based; settings: Homo sapiens;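 note: NF-kB luciferase reporter Jurkat cells stimulated with PMA plus ionomycin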
[12] = biological target: Cyclin-dependent kinase 5/CDK5 activator 1 (Homo sapiens, UniProt Q00535); experiment: blockade of human CDK5 activity – biochemical, cherry-picked samples, set 2, dose response (AID 504545)
[13] = HEK-293T viability loss, compound-treated – cell-based, uHTS hits, cytotoxicity control for B/T-cell NF-kB inhibitor project, dose response (AID 489019); format: functional;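 note: IC50 reflects cytotoxicity as loss of cell viability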
Vero [14] = experiment: cells; format: functional, cell-based; settings: Chlorocebus sabaeus
[15] = biological target: Dual specificity tyrosine-phosphorylation-regulated kinase 1A (Rattus norvegicus, UniProt Q63470); format: biochemical, Homo sapiens
[16] = reduction of Shn3 3'UTR-driven luciferase in osteoblasts – cell-based, Clone20 osteoblasts, firefly luciferase, cherry-picked, dose response (AID 624132); format: functional;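 note: firefly luciferase luminescence from reporter carrying the Shn3 3'UTR in osteoblasts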
[17] = non-specific 3'UTR reporter inhibition in Clone20-Shn3RL – cell-based, Renilla luciferase, cherry-picked, counter-screen for Shn3 inhibitor project, dose response (AID 624133); format: functional
[18] = Luminescence Cell-Based Dose Confirmation HTS to Identify Activators of 5'UTR Stem-Loop Driven Alpha-Synuclein mRNA Translation in H4 Neuroglioblastoma Cells. [Related pubchem assays: 1829 (Project Summary), 1814 (Primary HTS)]; format: functional
[19] = Luminescence Cell-Based Dose Response HTS to Identify Activators of Luciferase Translation or Activity in H4 […] Cells. [Related pubchem assays: 1829 (Project Summary), 1814 (Primary HTS)]; format: functional
H4 = experiment: Luminescence Cell-Based Dose Response HTS to Identify Activators of 5'UTR Stem-Loop Driven Prion Protein mRNA Translation in H4 Neuroglioblastoma Cells. [Related pubchem assays: 1829 (Project Summary), 1814 (Primary HTS)]; format: functional; settings: Homo sapiens
[20] = Trypanosoma cruzi growth suppression in host cells – NIH3T3 host cells, beta-gal luminescence, confirmation (AID 2044); format: functional, cell-based;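 note: intracellular parasites grown in NIH/3T3 mouse fibroblasts as host cells; luminescent beta-galactosidase reporter signal from transgenic T. cruzi replicating inside host cells; inhibitors lower the luminescence signal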
[21] = biological target: Peroxisome proliferator-activated receptor gamma/Nuclear receptor corepressor 2 (Homo sapiens, UniProt P37231+Q9Y618); experiment: Counterscreen for NR2E3 inverse agonists: TR-FRET-based biochemical high throughput dose response assay to identify inverse agonists of the interaction between peroxisome proliferator-activated receptor gamma (PPARg) and nuclear receptor co-repressor 2 (NCOR2).; format: functional
[22] = biological target: Photoreceptor-specific nuclear receptor (Homo sapiens, UniProt Q9Y5X4); experiment: ligands suppressing NR2E3 nuclear receptor activity – biochemical, TR-FRET, dose response (AID 463256); format: functional
[23] = NIH3T3 cell viability loss – ATP luminescence, mouse fibroblasts, counter-screen, dose response (AID 2010); format: functional, cell-based;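 note: cells exposed to compound for about 90 hours before reading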
Nonstructural protein 1 = Nonstructural protein 1 (Influenza A virus, UniProt Q194T2); format: functional, Influenza A virus (A/California/07/2009(H1N1))
[24] = biological target: T1, Replicative DNA helicase DnaB (Mycobacterium tuberculosis, UniProt P9WMR3); experiment: DnaB intein splicing inhibitors, dose response, biochemical, cell-free fluorescence (AID 449749); format: functional
T1 sequence (P9WMR3 whole entry): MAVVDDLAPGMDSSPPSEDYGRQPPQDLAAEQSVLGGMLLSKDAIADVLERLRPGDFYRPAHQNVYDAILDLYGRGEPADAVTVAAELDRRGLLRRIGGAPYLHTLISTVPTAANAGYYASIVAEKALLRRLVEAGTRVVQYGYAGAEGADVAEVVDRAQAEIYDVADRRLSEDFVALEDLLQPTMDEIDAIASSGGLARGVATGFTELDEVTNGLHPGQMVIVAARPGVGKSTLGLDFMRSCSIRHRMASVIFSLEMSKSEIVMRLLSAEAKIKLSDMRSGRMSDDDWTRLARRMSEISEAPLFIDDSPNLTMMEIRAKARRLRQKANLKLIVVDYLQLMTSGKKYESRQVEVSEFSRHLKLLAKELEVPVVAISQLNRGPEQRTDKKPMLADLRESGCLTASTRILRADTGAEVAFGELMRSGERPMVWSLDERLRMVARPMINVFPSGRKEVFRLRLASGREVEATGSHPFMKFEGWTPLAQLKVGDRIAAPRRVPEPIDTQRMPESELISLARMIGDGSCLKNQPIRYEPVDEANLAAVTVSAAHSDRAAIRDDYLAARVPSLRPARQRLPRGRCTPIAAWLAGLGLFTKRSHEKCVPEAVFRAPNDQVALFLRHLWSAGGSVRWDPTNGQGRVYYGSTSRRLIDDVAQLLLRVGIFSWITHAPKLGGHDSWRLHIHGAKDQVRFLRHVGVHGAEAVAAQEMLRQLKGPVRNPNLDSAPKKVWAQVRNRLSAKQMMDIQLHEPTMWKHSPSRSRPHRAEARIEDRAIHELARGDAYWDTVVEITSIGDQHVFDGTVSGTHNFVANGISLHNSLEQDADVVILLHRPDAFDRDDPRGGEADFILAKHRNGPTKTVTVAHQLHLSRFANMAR

Protein RecA = biological target: T2, Protein RecA (Mycobacterium tuberculosis, UniProt P9WHJ3); experiment: Fluorescence Cell-Free Homogeneous Dose Retest to Identify Inhibitors of RecA-Intein Splicing Activity. [Related pubchem assays (depositor defined):AID2097, AID2223, AID489010, AID492950]; format: functional
T2 sequence (P9WHJ3 whole entry): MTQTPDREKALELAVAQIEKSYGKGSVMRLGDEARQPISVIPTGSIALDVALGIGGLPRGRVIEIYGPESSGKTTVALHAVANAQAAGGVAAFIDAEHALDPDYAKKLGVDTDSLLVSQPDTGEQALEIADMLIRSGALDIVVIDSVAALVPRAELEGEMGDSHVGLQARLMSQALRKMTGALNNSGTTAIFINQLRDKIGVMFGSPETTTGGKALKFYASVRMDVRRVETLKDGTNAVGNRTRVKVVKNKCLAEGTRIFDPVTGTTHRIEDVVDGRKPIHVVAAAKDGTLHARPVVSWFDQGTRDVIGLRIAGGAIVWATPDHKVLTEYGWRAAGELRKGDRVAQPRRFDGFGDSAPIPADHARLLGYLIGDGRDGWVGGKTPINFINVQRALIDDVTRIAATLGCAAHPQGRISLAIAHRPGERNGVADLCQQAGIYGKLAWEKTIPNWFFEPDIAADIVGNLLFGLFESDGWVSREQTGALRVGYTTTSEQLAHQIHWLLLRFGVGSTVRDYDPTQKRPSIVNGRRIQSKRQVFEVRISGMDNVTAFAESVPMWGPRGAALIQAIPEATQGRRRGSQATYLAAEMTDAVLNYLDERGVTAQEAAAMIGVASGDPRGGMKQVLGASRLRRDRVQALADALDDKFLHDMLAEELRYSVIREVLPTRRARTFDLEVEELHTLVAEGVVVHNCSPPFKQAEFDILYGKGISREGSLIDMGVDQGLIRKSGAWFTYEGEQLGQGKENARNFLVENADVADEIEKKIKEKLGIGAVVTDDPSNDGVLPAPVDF

[25] = biological target: T3, Sentrin-specific protease 8 (Homo sapiens, UniProt Q96LD8); format: functional
T3 sequence (Q96LD8 whole entry): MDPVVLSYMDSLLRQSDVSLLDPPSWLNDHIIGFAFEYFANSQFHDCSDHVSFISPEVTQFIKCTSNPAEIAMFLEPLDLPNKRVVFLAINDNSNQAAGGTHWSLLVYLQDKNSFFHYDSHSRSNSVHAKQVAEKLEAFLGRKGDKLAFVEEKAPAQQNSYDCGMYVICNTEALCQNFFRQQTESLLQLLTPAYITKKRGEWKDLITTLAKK

[26] = biological target: T3, Sentrin-specific protease 8; format: functional; remark: listed apart in the source
Caspase-3 = biological target: T4, Caspase-3 (Homo sapiens, UniProt P42574); experiment: Dose-response confirmation of uHTS inhibitor hits of Sentrin-Specific Protease 8 in a Caspase-3 Fluorescence assay.; format: functional
T4 sequence (P42574 whole entry): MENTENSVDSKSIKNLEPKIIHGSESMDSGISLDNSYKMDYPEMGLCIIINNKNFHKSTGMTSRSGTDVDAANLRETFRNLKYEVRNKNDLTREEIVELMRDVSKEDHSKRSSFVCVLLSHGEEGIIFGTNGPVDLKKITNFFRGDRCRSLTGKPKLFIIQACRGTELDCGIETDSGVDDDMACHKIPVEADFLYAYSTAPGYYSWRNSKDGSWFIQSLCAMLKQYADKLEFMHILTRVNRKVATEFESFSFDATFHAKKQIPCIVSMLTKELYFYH

[27] = HPDE-C7 pancreatic duct cell viability loss – fluorescence, HTS (AID 430); format: functional, cell-based; settings: Homo sapiens
[28] = viability loss of HPDE-C7K cells – cell-based, fluorescence, HTS, primary screen (AID 431); format: functional; settings: Homo sapiens
Estrogen receptor beta = Estrogen receptor beta (Homo sapiens, UniProt Q92731); experiment: blockers of SRC-3 recruitment to ERβ – biochemical, ELISA, streptavidin-HRP readout, orthogonal assay, confirmation (AID 1060)
[29] = biological target: Dual specificity protein phosphatase 6 (Rattus norvegicus, UniProt Q64346); experiment: inhibition of rat DUSP6 enzyme activity – biochemical, in vitro, primary screen (AID 425)
[30] = IC50 of Artemis nuclease activity blockers – biochemical, fluorescence intensity, dose response (AID 720701); format: functional;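 note: Artemis endonuclease enzyme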
Protein Tat = Protein Tat (Human immunodeficiency virus type 1 group M subtype B (isolate HXB2)(HIV-1), UniProt P04608); format: functional;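 note: tat binding to TAR RNA read out by fluorescence polarization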
[31] = viability loss in THP-1 monocytes – THP-1 cells, cytotoxicity control for Vif-APOBEC3G degradation inhibitor project, dose response (AID 1117359); format: functional; settings: THP-1
[32] = HIV-1 Vif–A3G interaction blockers – biochemical, TR-FRET, GST-Vif 1-94, biotin-A3G peptide, dose response retest, primary screen (AID 1117319); format: functional;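 note: TR-FRET signal of purified GST-Vif binding a biotinylated A3G peptide; inhibitors lower the FRET signal by blocking Vif and A3G binding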

Sequence of 5-hydroxytryptamine receptor 1A (P08908 whole entry): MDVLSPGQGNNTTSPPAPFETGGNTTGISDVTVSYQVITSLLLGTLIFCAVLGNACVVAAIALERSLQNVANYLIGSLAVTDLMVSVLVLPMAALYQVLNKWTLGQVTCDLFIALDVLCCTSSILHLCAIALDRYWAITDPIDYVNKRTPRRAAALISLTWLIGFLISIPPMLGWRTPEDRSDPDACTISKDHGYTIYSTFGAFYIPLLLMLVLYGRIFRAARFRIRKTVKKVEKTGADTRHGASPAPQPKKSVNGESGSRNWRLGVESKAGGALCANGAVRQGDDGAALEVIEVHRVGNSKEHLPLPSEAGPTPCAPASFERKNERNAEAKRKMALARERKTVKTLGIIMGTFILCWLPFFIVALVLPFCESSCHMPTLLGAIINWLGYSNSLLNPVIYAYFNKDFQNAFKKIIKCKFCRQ
Sequence of Nonstructural protein 1 (Q194T2 whole entry): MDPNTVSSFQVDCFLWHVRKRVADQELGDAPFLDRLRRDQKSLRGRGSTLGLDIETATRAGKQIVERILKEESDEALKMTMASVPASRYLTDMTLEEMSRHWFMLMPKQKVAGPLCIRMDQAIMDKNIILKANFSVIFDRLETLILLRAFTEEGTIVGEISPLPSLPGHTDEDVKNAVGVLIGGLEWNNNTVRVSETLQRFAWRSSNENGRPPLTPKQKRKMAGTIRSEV
Sequence of Estrogen receptor beta (Q92731 whole entry): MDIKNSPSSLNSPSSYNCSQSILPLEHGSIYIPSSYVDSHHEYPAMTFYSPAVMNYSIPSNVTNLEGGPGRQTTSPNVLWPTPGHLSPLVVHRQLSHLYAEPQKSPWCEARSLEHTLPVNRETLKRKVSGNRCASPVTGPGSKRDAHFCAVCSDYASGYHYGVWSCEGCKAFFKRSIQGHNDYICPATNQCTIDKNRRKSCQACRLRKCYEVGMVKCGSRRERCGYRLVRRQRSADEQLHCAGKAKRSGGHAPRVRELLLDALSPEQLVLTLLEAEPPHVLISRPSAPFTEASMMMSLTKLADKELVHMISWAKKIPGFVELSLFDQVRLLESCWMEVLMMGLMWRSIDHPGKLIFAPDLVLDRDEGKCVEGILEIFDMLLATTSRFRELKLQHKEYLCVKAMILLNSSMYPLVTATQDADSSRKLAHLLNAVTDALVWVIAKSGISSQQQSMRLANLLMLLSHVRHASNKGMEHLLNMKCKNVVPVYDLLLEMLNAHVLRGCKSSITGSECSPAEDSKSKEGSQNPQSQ
Sequence of Dual specificity protein phosphatase 6 (Q64346 whole entry): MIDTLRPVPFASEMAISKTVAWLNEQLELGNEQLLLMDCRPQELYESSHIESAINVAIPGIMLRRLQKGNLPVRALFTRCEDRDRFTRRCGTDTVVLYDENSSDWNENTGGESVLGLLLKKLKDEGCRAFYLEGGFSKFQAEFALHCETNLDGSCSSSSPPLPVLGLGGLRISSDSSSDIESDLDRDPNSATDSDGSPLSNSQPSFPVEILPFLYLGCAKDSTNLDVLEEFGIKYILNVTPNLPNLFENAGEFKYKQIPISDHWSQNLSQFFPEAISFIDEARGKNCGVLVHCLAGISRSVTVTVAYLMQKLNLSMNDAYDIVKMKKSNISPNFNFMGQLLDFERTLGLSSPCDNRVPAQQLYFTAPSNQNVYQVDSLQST
Sequence of Aryl hydrocarbon receptor (P35869 whole entry): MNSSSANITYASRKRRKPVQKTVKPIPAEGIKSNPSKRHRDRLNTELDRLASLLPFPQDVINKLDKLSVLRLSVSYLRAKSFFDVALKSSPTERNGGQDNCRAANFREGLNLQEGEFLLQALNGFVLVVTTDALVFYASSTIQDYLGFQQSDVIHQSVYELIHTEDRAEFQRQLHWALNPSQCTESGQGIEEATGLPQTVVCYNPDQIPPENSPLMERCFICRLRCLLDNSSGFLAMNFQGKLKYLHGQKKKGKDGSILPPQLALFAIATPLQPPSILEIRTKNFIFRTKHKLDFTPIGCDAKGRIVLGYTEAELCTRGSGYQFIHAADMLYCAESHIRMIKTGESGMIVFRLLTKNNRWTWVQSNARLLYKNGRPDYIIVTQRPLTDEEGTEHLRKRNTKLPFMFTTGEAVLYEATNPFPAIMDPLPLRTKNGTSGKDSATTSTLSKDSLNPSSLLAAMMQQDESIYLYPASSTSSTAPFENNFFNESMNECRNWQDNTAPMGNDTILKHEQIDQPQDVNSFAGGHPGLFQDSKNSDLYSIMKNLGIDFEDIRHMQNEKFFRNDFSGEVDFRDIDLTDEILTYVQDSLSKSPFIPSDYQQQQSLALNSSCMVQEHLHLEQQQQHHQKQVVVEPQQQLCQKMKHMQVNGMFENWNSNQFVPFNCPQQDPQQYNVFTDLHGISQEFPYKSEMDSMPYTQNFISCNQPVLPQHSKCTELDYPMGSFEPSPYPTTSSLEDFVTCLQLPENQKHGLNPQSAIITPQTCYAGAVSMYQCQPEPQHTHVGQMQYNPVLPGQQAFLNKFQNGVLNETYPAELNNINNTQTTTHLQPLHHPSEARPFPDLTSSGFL
Sequence of Protein Tat (P04608 whole entry): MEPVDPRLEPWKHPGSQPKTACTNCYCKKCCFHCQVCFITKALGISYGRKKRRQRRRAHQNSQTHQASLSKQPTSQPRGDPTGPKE
Sequence of Cyclin-dependent kinase 5/CDK5 activator 1 (Q00535 whole entry): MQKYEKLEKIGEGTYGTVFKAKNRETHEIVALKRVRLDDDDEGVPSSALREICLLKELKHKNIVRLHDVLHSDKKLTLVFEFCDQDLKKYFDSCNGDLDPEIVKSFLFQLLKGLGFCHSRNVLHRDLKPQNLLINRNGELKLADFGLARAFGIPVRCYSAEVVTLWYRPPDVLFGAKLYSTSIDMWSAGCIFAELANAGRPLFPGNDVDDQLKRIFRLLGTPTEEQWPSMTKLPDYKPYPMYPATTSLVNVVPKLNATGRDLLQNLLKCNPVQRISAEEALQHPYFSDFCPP
Sequence of Cyclin-dependent kinase 5/CDK5 activator 1 (Q15078 whole entry, further chain): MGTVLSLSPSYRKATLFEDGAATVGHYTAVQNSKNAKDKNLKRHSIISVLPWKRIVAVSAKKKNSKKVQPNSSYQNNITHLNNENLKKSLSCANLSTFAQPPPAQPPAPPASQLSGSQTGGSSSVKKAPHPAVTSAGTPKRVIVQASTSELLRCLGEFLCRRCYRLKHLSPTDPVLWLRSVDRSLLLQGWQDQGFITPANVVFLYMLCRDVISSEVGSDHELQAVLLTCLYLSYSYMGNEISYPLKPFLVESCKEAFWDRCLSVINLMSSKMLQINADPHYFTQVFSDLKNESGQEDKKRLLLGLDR
Sequence of Photoreceptor-specific nuclear receptor (Q9Y5X4 whole entry): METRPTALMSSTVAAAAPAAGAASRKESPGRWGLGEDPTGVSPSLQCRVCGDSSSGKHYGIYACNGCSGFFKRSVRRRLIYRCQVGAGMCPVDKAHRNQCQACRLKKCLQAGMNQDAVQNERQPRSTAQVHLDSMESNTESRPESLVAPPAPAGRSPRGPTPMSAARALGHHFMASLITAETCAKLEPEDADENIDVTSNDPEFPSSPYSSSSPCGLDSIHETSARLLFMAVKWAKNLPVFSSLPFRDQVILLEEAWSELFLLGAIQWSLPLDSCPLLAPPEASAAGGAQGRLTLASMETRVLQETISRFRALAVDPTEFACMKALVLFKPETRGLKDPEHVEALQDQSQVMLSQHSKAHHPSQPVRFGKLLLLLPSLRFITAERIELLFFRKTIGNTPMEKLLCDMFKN

## O=C(NCCC1=CCCCC1)c1c(O)nc2ccccn2c1=O
[1]
  EC50: > 120 µM (not active)

## CCCCN(C)CCCNC(=O)Cn1c(=O)sc2ccccc21
[2]
  EC50: > 50 µM (not active)

## NNc1nc(O)c2c3c(sc2n1)-c1ccccc1CC3
[3]
  EC50: 373 nM (active)

## OCCCNc1cc(-c2ccnc(Nc3cccc(Cl)c3)n2)ccn1
[4]
  EC50: 269 nM (inconclusive)
[5]
  EC50: 74 nM (active)
cells
  EC50: 76 nM (active)
[6]
  EC50: < 100 nM (active)
Vero [7]
  CC50: 50 nM (active)
[8]
  EC50: < 100 nM (active)
[9]
  EC50: 666 nM (active)
[10]
  CC50: < 80 nM (active)
[11]
  EC50: 182 nM (active)
Jurkat
  IC50: < 160 nM (active)
[12]
  AC50: 377 nM (active)
[13]
  IC50: 35.3 µM (inactive)
Vero [14]
  IC50: > 25 µM (active)
[15]
  AC50: 13 nM (active)
[16]
  AC50: < 260 nM (active)
[17]
  AC50: 375 nM (active)

## Cc1ccc(S(=O)(=O)NC(=O)Nc2ccc(N(C)C)cc2)cc1
[18]
  EC50: 7.5 µM (active)
[19]
  EC50: 13 µM (active)
H4
  EC50: 1.97 µM (active)
[20]
  EC50: 1.39 µM (active)
[21]
  IC50: 503 nM (active)
[22]
  IC50: 748 nM (active)
[23]
  EC50: > 60 µM (not active)
Nonstructural protein 1
  IC50: 44.1 µM (active)
[24]
  AC50: > 380 µM (inactive)
Protein RecA
  EC50: 5.18 µM (active)
[25]
  IC50: 7.83 µM (active)
[26]
  IC50: 7.02 µM (active)
Caspase-3
  IC50: 18.1 µM (active)

## CSc1nc(N(CCO)CCO)c2sc3nc(-c4ccco4)c4c(c3c2n1)CCC4
[27]
  EC50: 12.6 µM (active)
[28]
  EC50: 5.95 µM (active)
Estrogen receptor beta
  IC50: > 50 µM (not active)
[29]
  IC50: > 10 µM (not active)
[30]
  IC50: > 20 µM (inactive)
Protein Tat
  IC50: 57.3 µM (inconclusive)
[31]
  CC50: > 40 µM (active)
[32]
  IC50: > 34.6 µM (active)
